{"source": "paper PMC7369637", "about": "“Inhibition of Resistance-Refractory P. falciparum Kinase PKG Delivers Prophylactic, Blood Stage, and Transmission-Blocking Antiplasmodial Activity” (Cell Chemical Biology, 2020)", "key": {"[1]": {"biological_target": "T1, calcium-dependent protein kinase 1 (CDPK1) (PF3D7_0217500) (Plasmodium falciparum, UniProt P62344)", "T1 construct": "endogenous in cells; host or cells: P. falciparum asexual blood-stage parasites (trophozoite stage)", "T1 sequence (P62344 whole entry)": "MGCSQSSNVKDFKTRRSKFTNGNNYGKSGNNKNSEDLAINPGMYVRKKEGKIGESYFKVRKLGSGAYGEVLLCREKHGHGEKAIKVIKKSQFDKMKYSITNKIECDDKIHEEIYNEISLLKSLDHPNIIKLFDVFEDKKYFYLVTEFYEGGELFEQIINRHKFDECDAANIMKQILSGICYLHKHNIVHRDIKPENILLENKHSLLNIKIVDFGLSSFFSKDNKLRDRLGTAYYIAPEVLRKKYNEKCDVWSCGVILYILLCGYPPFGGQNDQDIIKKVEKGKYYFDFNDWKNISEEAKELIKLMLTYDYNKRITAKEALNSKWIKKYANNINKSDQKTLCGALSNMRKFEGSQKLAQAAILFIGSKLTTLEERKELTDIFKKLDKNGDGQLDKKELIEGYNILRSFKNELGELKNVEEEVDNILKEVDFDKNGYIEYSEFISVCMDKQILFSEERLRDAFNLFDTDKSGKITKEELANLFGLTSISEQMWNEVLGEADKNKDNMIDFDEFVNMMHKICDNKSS", "assay": "Competitive chemoproteomics in Pf lysates (Kinobeads / bead-immobilized compound)", "assay_type": "binding", "settings": "for pKd: read-out: Kdapp, CDPK1", "method": "(§1) Pf protein extracts were prepared as described elsewhere ([Paquet et al., 2017]). Parasite cultures at the trophozoite stage were harvested, washed twice in RPMI 1640 medium (Gibco), and lysed by the addition of saponin to a final concentration of 0.1% for 5 min at room temperature. Free parasites were sedimented by centrifugation (3500 rpm for 10 min), washed three times with phosphate-buffered saline, and stored at −80°C. Parasites were resuspended in cell lysis buffer (50 mM tris-HCl (pH 7.5), 5% glycerol, 1.5 mM MgCl2, […], 1 mM […], 25 mM sodium fluoride, 0.8% NP-40, EDTA-free protease inhibitor cocktail tablets (Roche Diagnostics), and 1 mM DTT) and disrupted by sonication (Sonics Vibra-Cell) using two 30-s cycles on ice at half-amplitude. After centrifugation (140,000g for 1 h at 4°C), soluble proteins were recovered from the supernatants, and protein concentrations of each sample were estimated using the Lowry-based DC assay (Bio-Rad). Samples were stored at −80°C until use.\n(§2) Kinobeads were prepared by immobilizing Bis-(III) indolyl-maleimide, purvalanol B, staurosporine and CZC8004, and the analogs of PD173955, sunitinib and vandetanib on NHS-activated Sepharose 4 beads (Amersham) ([Bantscheff et al., 2007]). […] The chemoproteomic affinity-capturing experiments were performed as previously described ([Bantscheff et al., 2011]). Briefly, beads were washed and equilibrated in lysis buffer (50 mM Tris-HCl, pH 7.4, 0.4 % Igepal-CA630, 1.5 mM MgCl2, 5 % Glycerol, 150 mM NaCl, 25 mM NaF, 1 mM Na3VO4, 1 mM DTT, and one cOmplete EDTA-free protease inhibitor tablet (Roche) per 25 mL). The beads were incubated at 4°C for 1 h with either 0.1 ml (0.3 mg) Pf blood stage extract or 0.5 mL (2.5 mg) human cell/tissue protein extract (a mixture of HEK-293, K-562, Hep G2 , and placental cells), which was pre-incubated with compound or DMSO (vehicle control). 10 samples were measured in parallel (TMT 10-plex ([Werner et al., 2014])) to generate values for the affinity of the beads to the bound proteins (“depletion” values, 4 samples) and to generate IC50 values (6 samples) in a single experiment. Apparent dissociation constants were determined after accounting for protein depletion by the beads ([Bantscheff et al., 2011]). Beads were transferred to Filter plates (Durapore PVDF membrane, Merck Millipore), washed with lysis buffer, and eluted with SDS sample buffer.\n(§3) Proteins were digested according to a modified single pot solid-phase sample preparation (SP3) protocol ([Hughes et al., 2014]). Peptides were labeled with isobaric mass tags (Thermo Fisher Scientific, Waltham, MA) using 10-plex TMT reagents, enabling relative quantification of 10 conditions in a single experiment ([Werner et al., 2014]). The labeling reactions and LC-MS/MS measurements using Q Exactive Orbitrap or Orbitrap Fusion Lumos mass spectrometers (Thermo Fisher Scientific) were performed as described elsewhere ([Sridharan et al., 2019]). Mascot 2.4 (Matrix Science, Boston, MA) was used for protein identification by using a 10 parts per million mass tolerance for peptide precursors and 20 mD (HCD) mass tolerance for fragment ions. To create the fasta file for mascot searching, all proteins corresponding to the taxonomy ‘Plasmodium falciparum (isolate 3D7)’ were downloaded from Uniprot (release 20170621) and supplemented with common contaminant protein sequences of bovine serum albumin, porcine trypsin and mouse, rat, sheep and dog keratins. To assess the false discovery rate (FDR), “decoy” proteins (reverse of all protein sequences) were created and added to the database, resulting in a database containing a total of 14266 protein sequences, with 50% forward and 50% reverse. For peptide and protein identification of human proteins see ([Sridharan et al., 2019]). […]"}, "[2]": {"biological_target": "putative amino acid transporter (AAT) (PF3D7_1231400) (Plasmodium falciparum, UniProt Q8I5A6)", "sequence (Q8I5A6 entry or part of it)": "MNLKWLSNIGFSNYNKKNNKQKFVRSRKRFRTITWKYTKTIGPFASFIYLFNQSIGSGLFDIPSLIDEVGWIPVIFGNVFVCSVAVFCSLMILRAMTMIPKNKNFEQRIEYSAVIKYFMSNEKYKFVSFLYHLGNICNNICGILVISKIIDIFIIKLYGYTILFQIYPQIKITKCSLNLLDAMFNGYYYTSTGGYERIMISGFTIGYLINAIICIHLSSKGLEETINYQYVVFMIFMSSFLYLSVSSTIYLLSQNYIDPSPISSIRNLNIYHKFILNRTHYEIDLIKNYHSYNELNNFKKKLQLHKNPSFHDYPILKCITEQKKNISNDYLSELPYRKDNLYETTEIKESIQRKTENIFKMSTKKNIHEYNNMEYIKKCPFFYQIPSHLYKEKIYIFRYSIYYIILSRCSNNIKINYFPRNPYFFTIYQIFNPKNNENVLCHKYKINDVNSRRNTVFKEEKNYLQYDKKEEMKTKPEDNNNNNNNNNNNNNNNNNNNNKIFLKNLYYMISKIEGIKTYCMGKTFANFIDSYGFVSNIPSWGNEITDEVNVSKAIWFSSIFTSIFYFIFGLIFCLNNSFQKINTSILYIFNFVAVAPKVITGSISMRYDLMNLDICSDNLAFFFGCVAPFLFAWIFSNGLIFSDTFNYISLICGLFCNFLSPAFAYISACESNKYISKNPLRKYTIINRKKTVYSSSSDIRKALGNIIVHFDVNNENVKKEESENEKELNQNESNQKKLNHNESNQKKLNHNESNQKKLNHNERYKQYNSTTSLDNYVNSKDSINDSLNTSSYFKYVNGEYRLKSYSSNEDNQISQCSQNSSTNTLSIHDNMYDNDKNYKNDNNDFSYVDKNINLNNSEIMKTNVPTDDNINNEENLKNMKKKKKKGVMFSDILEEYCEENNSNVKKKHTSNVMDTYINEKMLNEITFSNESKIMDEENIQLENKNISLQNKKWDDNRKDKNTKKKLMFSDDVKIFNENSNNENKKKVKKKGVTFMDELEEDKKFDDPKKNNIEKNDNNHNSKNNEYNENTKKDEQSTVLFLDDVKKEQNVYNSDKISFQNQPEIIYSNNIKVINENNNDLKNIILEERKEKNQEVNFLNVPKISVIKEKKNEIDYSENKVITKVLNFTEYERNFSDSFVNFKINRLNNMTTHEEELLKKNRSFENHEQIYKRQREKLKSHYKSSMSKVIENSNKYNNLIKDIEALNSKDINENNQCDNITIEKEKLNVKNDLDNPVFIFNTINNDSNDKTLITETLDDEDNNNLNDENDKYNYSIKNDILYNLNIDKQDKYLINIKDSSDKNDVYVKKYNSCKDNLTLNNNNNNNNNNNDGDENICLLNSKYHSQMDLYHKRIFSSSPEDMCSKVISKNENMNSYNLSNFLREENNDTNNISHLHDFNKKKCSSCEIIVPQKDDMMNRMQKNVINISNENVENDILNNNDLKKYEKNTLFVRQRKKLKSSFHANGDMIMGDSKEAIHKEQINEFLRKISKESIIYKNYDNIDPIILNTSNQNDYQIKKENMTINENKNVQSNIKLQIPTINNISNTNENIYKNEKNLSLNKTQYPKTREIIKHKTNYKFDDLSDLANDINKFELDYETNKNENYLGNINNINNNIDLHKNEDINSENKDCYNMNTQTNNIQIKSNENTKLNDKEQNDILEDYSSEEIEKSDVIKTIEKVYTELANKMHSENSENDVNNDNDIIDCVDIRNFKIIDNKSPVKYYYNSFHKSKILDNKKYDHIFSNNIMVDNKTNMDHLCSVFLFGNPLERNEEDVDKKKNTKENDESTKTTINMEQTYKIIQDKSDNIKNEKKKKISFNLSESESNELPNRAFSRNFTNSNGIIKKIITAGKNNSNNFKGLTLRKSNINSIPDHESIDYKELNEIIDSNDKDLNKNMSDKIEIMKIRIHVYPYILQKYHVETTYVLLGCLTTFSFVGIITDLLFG", "assay": "Competitive chemoproteomics in Pf lysates (Kinobeads / bead-immobilized compound)", "assay_type": "binding", "settings": "lysates exposed to 40 μM of the same compound vs vehicle", "method": "as §1, §2, §3"}, "[3]": {"system": "recombinant TKL3 kinase domain", "assay": "Radioactive in vitro kinase assay with recombinant TKL3 kinase domain", "assay_type": "biochemical, Plasmodium falciparum", "settings": "20 μM compound", "method": "Recombinant proteins were expressed in E. coli as previously described ([Abdi et al., 2010]). […] The cultures were then cooled to 20°C followed by induction of protein expression with 0.5 mM IPTG and further incubation at 20°C, 200 rpm for 16 h. Cultures were harvested by centrifugation at 4000g, 4°C for 10 min. Bacterial pellets were washed once in 1× PBS and were stored at −80°C. Cell pellets were resuspended in ice-cold Lysis Buffer (50 mM sodium phosphate, pH 8.0, 400 mM NaCl, 5 % (w/v) glycerol, 0.1 % (v/v) Triton X-100, 20 mM imidazole, 2 mM β-mercaptoethanol, 1× Roche protease inhibitor cocktail EDTA-free, 1 mg/ml lysozyme). Cells were disrupted by sonication. Protein was bound on a HisTrap HP column and eluted with a linear gradient of increasing imidazole concentrations. The peak fractions as determined by A280 trace were pooled together and further purified by size exclusion chromatography on a S200 gel filtration column equilibrated in 25 mM Tris pH 7.5, 100 mM NaCl, 5 % (w/v) glycerol, 1 mM DTT. Protein was pooled and concentrated. Final concentration was determined using a Bradford assay with a BSA protein standard.\nKinase assays containing 3 μg of recombinant kinase (WT or mutant) were performed in kinase assay buffer (25 mM Hepes, pH 7.5, 2 mM MnCl2, 10 mM β-glycerophosphate, 10 mM NaF, 25 μM ATP (containing 5 μCi [γ-^32P]-ATP-3000 mCi/mmol (PerkinElmer)), 5 μg substrate myelin basic protein (MBP) and ± 20 μM inhibitor) in a final reaction volume of 20 μl and incubated at 30°C for 30 min. Reactions were stopped by the addition of 5× Laemmli sample buffer and heated to 98°C for 5 min. Proteins were resolved by 4-12 % SDS-PAGE and stained in Coomassie Brilliant Blue. Kinase activity was detected by phosphorimaging. Imaging was performed on a Typhoon 5 Biomolecular imager (GE Healthcare Life Sciences)."}}, "note": "pKd: −log10 of the molar value. Read-outs that look alike come from different tables or passages of the source.", "data": [{"smiles": "CC(C)(CN)c1nc(-c2ccc(Cl)c(O)c2)c(-c2ccncc2)[nH]1", "note": "[MMV030084]", "values": [{"measurement": "pKd", "setting": "[1]; '084-beads (bead-immobilized MMV030084)", "value": 6.66}, {"measurement": "pKd", "setting": "[1]; Kinobeads", "value": 6.67}, {"measurement": "pKd", "setting": "[1]; five independent experiments, lowest tested concentration 0.1 μM", "value": "> 7.00"}, {"measurement": "CDPK1 pull-down by bead-bound compound", "setting": "[1]; lysates exposed to 40 μM of the same compound vs vehicle", "value": "pulled down"}, {"measurement": "pKd", "setting": "[1]; two follow-up experiments with lower concentrations", "value": "6.66 to 6.67"}, {"measurement": "AAT pull-down by bead-bound compound", "setting": "[2]", "value": "pulled down"}, {"measurement": "Reduction in TKL3 kinase activity", "setting": "[3]", "value": "no reduction"}]}]}
